# Source: patent publication US12077557B2, “Puromycin-based probes and methods of use thereof” (The Regents of the University of California, priority 2018, dated 2024)
# Legend:
# HeLa cells [1] = assay: Immunostaining and confocal fluorescence imaging of HeLa cells treated with puromycin-based probes; assay type: cell-based, human; conditions: for change in fluorescence intensity with H2O2 pretreatment: H2O2 50 μM 2 h pretreatment; for change of immunofluorescence intensity with incubation time: basal analyte level; for change in immunofluorescence intensity with cysteine or GSH incubation: 1 μM compound and cysteine or GSH 100 μM, 4 h; for change in fluorescence intensity with paraquat co-incubation: 1 μM compound, paraquat 1 mM; for green immunofluorescence at 0.5 h: basal
# A431 cells = assay: Immunostaining and confocal imaging of A431 cells with stimulation or inhibition of H2O2 or NO production; assay type: cell-based, human; conditions: for change in fluorescence intensity with EGF stimulation: EGF 100 ng/mL 20, 40, 60 min, then 1 μM compound 4 h
# Text: Human cervical epithelial carcinoma (HeLa), human epidermoid carcinoma (A-431) and human breast carcinoma (MDA-MB-231 and MDA-MB-468) were maintained in DMEM medium (high glucose) supplemented with GlutaMAX and 10 vol % FBS. Human breast carcinoma (MCF-7) was maintained in DMEM medium (high glucose) supplemented with GlutaMAX, 10 vol % FBS, 1 vol % non-essential amino acids and 1% sodium pyruvate. Human breast carcinoma (HS 578T) was maintained in DMEM medium (high glucose) supplemented with GlutaMAX, 10 vol % FBS, 1% sodium pyruvate and insulin (10 μg/mL). Human non-tumorigenic breast epithelial cells (MCF-10A) were maintained in DMEM/F12 (with L-glutamate, HEPES and phenol red) supplemented with 5 vol % horse serum, EGF (20 ng/mL), hydrocortisone ([…]), cholera toxin (100 ng/mL), insulin (10 μg/mL) and 1 vol % penicillin/streptomycin. Human normal breast epithelial cells (HS 578Bst) were maintained in ATCC Hybri-Care Medium (No. 46-X) supplemented with sodium bicarbonate ([…]), EGF (30 ng/mL) and 10 vol % FBS. All cells were incubated in 5% CO2 humidified air, and subcultured when 80% confluence was reached. For cell-imaging experiments, the cells were plated on 8-well Lab Tek borosilicate chambered coverglass slides (Nunc) or 24-well plates with 12 mm coverslips, and allowed to grow to ca. 60% confluency before performing the cell imaging experiments.
# Cells were incubated with the compound (1 μM) for indicated time intervals. The cells were then washed three-times by PBS solution and fixed by 4% paraformaldehyde at room temperature for 10 min. The cells were washed by PBS solution and PBS solution with 0.1 vol %-Triton X-100, followed by incubation with α-puromycin antibody [3RH11] (Kerafast; 1:500, v/v) in PBS solution containing 10 vol % FBS and 0.1 vol % Triton X-100 at 37° C. for 30 min. Subsequently, the cells were washed by PBS solution and PBS solution with 0.1 vol %-Triton X-100, and stained by α-mouse secondary antibody-Alexa Fluor 488 (1:100, v/v) in PBS solution containing 10 vol % FBS and 0.1 vol % Triton X-100 at 37° C. for 30 min. The cells were then washed by PBS solution and stained by Hoechst 33342 at room temperature for 10 min. After that, the cells were washed three-times by PBS solution and imaged by confocal fluorescence microscopy.
# EGF stimulation was carried out by pretreatment of A431 cells by EGF (100 ng/mL) for 20, 40 and 60 min, then washed by PBS and incubated with Peroxymycin-1 (1 μM) for 4 h.
# For the study with L-NAME, A431 cells were pretreated with L-NAME (100 μM) for 25 min, then washed by PBS and incubated with EGF (100 ng/mL) for 40 min, followed by washing and incubation with Peroxymycin-1 (1 μM) for 4 h.
# For the DPI experiment, the cells were pretreated with a mixture of DPI (5 μM) and EGF (100 ng/mL) for 40 min, followed by incubation with a mixture of DPI (5 μM) and Peroxymycin-1 (1 μM) for 4 h.
# For the inhibition of H2O2 production by gp91 Tat peptide, the cells were pretreated with gp91 Tat peptide (100 μM) for 30 min, then incubated with a mixture of gp91 Tat peptide (100 μM) and Peroxymycin-1 (1 μM) for 4 h.
# Confocal fluorescence cell imaging was performed with a Zeiss laser scanning microscope 710 with a 40× water-immersion objective lens using Zen 2009 software (Carl Zeiss). Hoechst 33342 was excited with a 405 nm diode laser, and emission was collected using a META detector between 450 and 500 nm. Alexa Fluor 488 was excited with 488 nm with an Ar laser, and emission was collected using a META detector between 500 and 625 nm. Alexa Fluor 647 was excited with a 633 nm HeNe laser, and emission was collected using a META detector between 638 and 647 nm. PBS solution was used as the imaging buffer for all the confocal experiments. Image analysis was performed using ImageJ. A region of interest (ROI) was created around a single cell, and cellular fluorescence intensity was measured. […]
# [2] = LC-MS study of reaction of probe with GSH and other substrates; conditions: 25° C.; probe 0.3 mM, GSH 1.0 mM
# Method: (§1) MilliQ water was used in all experiments unless otherwise stated. Reaction kinetics of the probes with species of interest and other substrates were investigated by LC-MS (Agilent Technology 6130, Quadrupole LC/MS) coupled with photodiode array for detection (X=275 nm). Confocal microscopy images were recorded on a Zeiss laser scanning microscope 710 with a 40× water-immersion objective lens using Zen 2009 software (Carl Zeiss).
# (§2) Peroxymycin-1 and Ctrl-Peroxymycin-1 (0.3 mM), respectively, were dissolved in phosphate buffer (20 mM, pH 7.4)-methanol solution mixture (2:1, v/v) with 3 vol % DMSO and allowed to stand at room temperature. At predetermined time intervals, an aliquot of the solution mixture was taken for LC-MS analysis. Separation was achieved by gradient elution from 5-100% MeOH in water (constant 0.1 vol % formic acid) over 8 min, isocratic with 100% MeOH from 8 to 12 min and returned to initial conditions and equilibrated for 3 minutes. The LC chromatograms were recorded by monitoring absorption at 275 nm.
# [3] = LC-MS study of reaction of probe with H2S and other substrates; conditions: 25° C.; probe 0.3 mM, H2S 1 mM
# Method: as §1, §2
# HeLa cells [4] = assay: Confocal fluorescence imaging of HeLa cells treated with fluorescent H2O2 probe PF2; assay type: cell-based, human
# Text: Human cervical epithelial carcinoma (HeLa), human epidermoid carcinoma (A-431) and human breast carcinoma (MDA-MB-231 and MDA-MB-468) were maintained in DMEM medium (high glucose) supplemented with GlutaMAX and 10 vol % FBS. Human breast carcinoma (MCF-7) was maintained in DMEM medium (high glucose) supplemented with GlutaMAX, 10 vol % FBS, 1 vol % non-essential amino acids and 1% sodium pyruvate. Human breast carcinoma (HS 578T) was maintained in DMEM medium (high glucose) supplemented with GlutaMAX, 10 vol % FBS, 1% sodium pyruvate and insulin (10 μg/mL). Human non-tumorigenic breast epithelial cells (MCF-10A) were maintained in DMEM/F12 (with L-glutamate, HEPES and phenol red) supplemented with 5 vol % horse serum, EGF (20 ng/mL), hydrocortisone ([…]), cholera toxin (100 ng/mL), insulin (10 μg/mL) and 1 vol % penicillin/streptomycin. […]
# (§3) Confocal fluorescence cell imaging was performed with a Zeiss laser scanning microscope 710 with a 40× water-immersion objective lens using Zen 2009 software (Carl Zeiss). […] A region of interest (ROI) was created around a single cell, and cellular fluorescence intensity was measured. The reported cellular fluorescence intensity was determined by averaging the measured intensity of 5 different cells from at least 3 different images in triplicate experiments. […]
# [5] = Stability of probes in phosphate buffer-methanol mixture by LC-MS; assay type: physicochemical
# Method: as §1, §2
# [6] = LC-MS study of reaction of probe with H2O2 and other ROS; conditions: 25° C.; probe 0.3 mM, H2O2 0.1 mM
# Method: as §1, §2
# For the study of the reaction with H2O2, Peroxymycin-1 and Ctrl-Peroxymycin-1 (0.3 mm), respectively, were dissolved in phosphate buffer (20 mM, pH 7.4)-methanol solution mixture (2:1, v/v) with 3 vol % DMSO. H2O2 was then added to the solution mixture (final concentration=0.1 mM), and the reaction mixture was allowed to stand at room temperature. […]
# [7] = system: panel of related cancer and non-tumorigenic breast cell lines; assay: H2O2 profiling across a panel of cancer and non-tumorigenic breast cell lines; assay type: cell-based, human; conditions: 1 μM, 4 h; MDA-MB-231, HS 578T, MDA-MB-468, MCF-7, MCF-10A, HS 578Bst
# Text: Human cervical epithelial carcinoma (HeLa), human epidermoid carcinoma (A-431) and human breast carcinoma (MDA-MB-231 and MDA-MB-468) were maintained in DMEM medium (high glucose) supplemented with GlutaMAX and 10 vol % FBS. Human breast carcinoma (MCF-7) was maintained in DMEM medium (high glucose) supplemented with GlutaMAX, 10 vol % FBS, 1 vol % non-essential amino acids and 1% sodium pyruvate. Human breast carcinoma (HS 578T) was maintained in DMEM medium (high glucose) supplemented with GlutaMAX, 10 vol % FBS, 1% sodium pyruvate and insulin (10 μg/mL). […]
# Cells were incubated with the compound (1 μM) for indicated time intervals. […] After that, the cells were washed three-times by PBS solution and imaged by confocal fluorescence microscopy.
# as §3
# [8] = H2S 100 μM 30 min, then 1 μM compound 4 h
smiles,measurement,setting,value
COc1ccc(CC(NC(=O)OCCc2ccc(B3OC(C)(C)C(C)(C)O3)cc2)C(=O)NC2C(CO)OC(n3cnc4c(N(C)C)ncnc43)C2O)cc1 (stereo not shown) [Ctrl-Peroxymycin-1],change in fluorescence intensity with H2O2 pretreatment,HeLa cells [1]; then 1 μM compound 4 h,lack of signal
same,change in fluorescence intensity with EGF stimulation,A431 cells,no observable differences in immunofluorescence
COc1ccc(CC(NC(=O)OCCSSCCOC(C)=O)C(=O)NC2C(CO)OC(n3cnc4c(N(C)C)ncnc43)C2O)cc1 (stereo not shown) [GSH-Puro-1],pseudo-first-order rate constant of the reaction with GSH,[2],9.4e-05 s⁻¹
same,relative fluorescence intensity compared to cells treated by puromycin,"HeLa cells [1]; 1 μM, 4 h incubation",69%
same,relative fluorescence intensity compared to cells treated by puromycin,"HeLa cells [1]; 1 μM, 6 h incubation",79%
same,change of immunofluorescence intensity with incubation time,"HeLa cells [1]; 1 μM, HeLa cells",Time-dependent increase in immunofluorescence intensity
same,fluorescence with BSO pretreatment compared to no pretreatment,"HeLa cells [1]; BSO 1 mM 3 h, then probe 2 h",significantly weaker fluorescence
same,immunofluorescence with GSH or lipoic acid pretreatment compared to no pretreatment,"HeLa cells [1]; GSH 100 μM 24 h or lipoic acid 1.8 mM 24 h, then probe 2 h",stronger immunofluorescence
COc1ccc(CC(NC(=O)OCc2ccc(N=[N+]=[N-])cc2)C(=O)NC2C(CO)OC(n3cnc4c(N(C)C)ncnc43)C2O)cc1 (stereo not shown) [H2S-Puro-1],pseudo-first-order rate constant of the reaction with H2S,[3],6.3e-05 s⁻¹
same,change in immunofluorescence intensity with cysteine or GSH incubation,HeLa cells [1],significant increase in immunofluorescence intensity
same,relative fluorescence intensity compared to cells treated by puromycin,"HeLa cells [1]; 1 μM, 4 h incubation",around 5%
same,change of immunofluorescence intensity with incubation time,"HeLa cells [1]; 1 μM, HeLa cells",time-dependent increase in green fluorescence intensity
same,immunofluorescence with H2S pretreatment relative to no pretreatment,HeLa cells [1]; [8],1.4 fold
"COc1ccc2c(c1)Oc1cc(B3OC(C)(C)C(C)(C)O3)ccc1C21OC(=O)c2ccccc21 (stereo not shown) [PF2, Peroxyfluor-2]",cellular fluorescence (basal H2O2),"HeLa cells [4]; 10 μM for 0.5, 4 and 6 h, washed",negligible fluorescence
same,change in signal in response to Nox2 inhibition by gp91 Tat peptide,"HeLa cells [4]; gp91 Tat peptide 100 μM 30 min, PF2 10 μM 4 h",failed to show statistically significant decreases in signal
COc1ccc(CC(NC(=O)OCc2ccc(B3OC(C)(C)C(C)(C)O3)cc2)C(=O)NC2C(CO)OC(n3cnc4c(N(C)C)ncnc43)C2O)cc1 (stereo not shown) [Peroxymycin-1],stability in aqueous solution buffered to physiological pH,"[5]; 0.3 mM probe, phosphate buffer (20 mM, pH 7.4)-methanol (2:1, v/v), 3 vol % DMSO, room temperature",good stability
same,puromycin generation in the absence of H2O2,"[5]; control experiment, LC-MS",negligible puromycin generation
same,pseudo-first-order rate constant of the reaction with H2O2,[6],0.001 s⁻¹
same,change in fluorescence intensity with paraquat co-incubation,HeLa cells [1],significant increases in fluorescence intensity
same,fluorescence intensity with H2O2 co-incubation relative to cells treated with probe only,"HeLa cells [1]; 1 μM probe 4 h, H2O2 50 μM co-incubation for 2 h",4.3 times
same,relative fluorescence intensity compared to cells treated by puromycin,"HeLa cells [1]; 1 μM, 4 h incubation",30.5%
same,green immunofluorescence at 0.5 h,"HeLa cells [1]; 1 μM, HeLa cells",no significant green fluorescence
same,change of immunofluorescence intensity with incubation time,"HeLa cells [1]; 1 μM, HeLa cells",increases in fluorescence intensity
same,change in fluorescence intensity with H2O2 pretreatment,HeLa cells [1]; then 1 μM compound 4 h,statistically significant increase in fluorescence intensity
same,change in fluorescence intensity with EGF stimulation,A431 cells,statistically significant increase in fluorescence intensity
same,change in immunofluorescent signal with DPI incubation,"A431 cells; EGF 100 ng/mL 40 min, DPI 5 μM, probe 1 μM 4 h",statistically significant decrease in immunofluorescent signal
same,effect of L-NAME on EGF-stimulated immunofluorescence,"A431 cells; L-NAME 100 μM 25 min, EGF 100 ng/mL 40 min, probe 1 μM 4 h",does not block EGF-stimulated increases
same,immunofluorescence with gp91 Tat peptide compared to controls without inhibitor,"A431 cells; gp91 Tat peptide 100 μM 30 min, probe 1 μM 4 h",markedly lower levels
same,order of fluorescence intensities normalized to puromycin-treated cells,[7],metastatic/invasive cancer cells>cancer cells>non-tumorigenic cells
COc1ccc(C[C@H](N)C(=O)N[C@H]2[C@@H](O)[C@H](n3cnc4c(N(C)C)ncnc43)O[C@@H]2CO)cc1 [puromycin],change in immunofluorescence intensity with cysteine or GSH incubation,HeLa cells [1],negligible change in fluorescence intensity
same,change in fluorescence intensity with paraquat co-incubation,HeLa cells [1],no significant changes in fluorescence
same,time of saturation of green fluorescence,"HeLa cells [1]; 1 μM, HeLa cells",1 h
same,green immunofluorescence at 0.5 h,"HeLa cells [1]; 1 μM, HeLa cells",strong green fluorescence
same,change in fluorescence intensity with H2O2 pretreatment,HeLa cells [1]; then 1 μM compound 4 h,lack of observed changes in fluorescence intensity
same,change in immunofluorescence intensity by H2S pretreatment,HeLa cells [1]; [8],No significant change in immunofluorescence intensity
same,"change in immunofluorescence intensity with GSH, lipoic acid or BSO pretreatment",HeLa cells [1]; puromycin control,no significant change in immunofluorescence intensity
same,change in fluorescence intensity with EGF stimulation,A431 cells,do not show any significant changes in fluorescence intensity
